Assay results as given in PubChem BioAssay AID1845219 (Molecular Pharmacology Branch, DTP, NCI, 2023).

Tested on: SYO-1 tumor spheroids, viability % test/control
Experiment: Anticancer human tumor SYO-1 cell line growth inhibition;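 note: spheroids exposed to agents for 7 days before viability read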;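 for viability, T/C: 100% = DMSO vehicle control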
Settings: spheroids with HUVEC and MSC; for IC50: curve of first compound; for viability, T/C: stronger effect = lower value
Excerpt: Multicellular complex tumor spheroid response to DNA repair inhibitors in combination with DNA-damaging drugs
This study explores the anticancer activities of DNA-damaging drugs and inhibitors of DNA damage repair, both as single agents and in combinations. Complex tumor spheroids comprised of malignant cells, endothelial cells and mesenchymal stem cells served as an in vitro model for human solid tumors. This model system incorporates physiologically relevant features and patient-derived or established malignant cell lines with clinically relevant genetic alterations from many tumor types. Twenty-six patient-derived or established malignant cell lines were evaluated representing sarcoma, melanoma, small cell lung cancer (SCLC), non-small cell lung cancer (NSCLC), as well as bladder, ovarian and pancreatic cancers. The concentration ranges selected for each drug and investigational agent were based upon clinically achievable concentrations if the clinical Cmax of the agent was known.
Compounds. The drugs and compounds olaparib (NSC753686), talazoparib (NSC767125), berzosertib (NSC777718), elimusertib (NSC800525), nedisertib (NSC802822), VX-984 (NSC792969), AZD-1390 (NSC803789), temozolomide (NSC362856), topotecan (NSC609699), trabectedin (NSC813783), staurosporine (NSC755774), and gemcitabine (NSC613327) were obtained from the National Cancer Institute (NCI) Developmental Therapeutics Program Chemical Repository. The FDA-approved anticancer drug set is available from the Developmental Therapeutics Program at https://dtp.cancer.gov/organization/dscb/obtaining/available_plates.htm. […] The stock solutions were prepared in dimethyl sulfoxide (DMSO, Sigma-Aldrich, St. Louis, MO, cat. D2650) at 400-fold the tested concentration and stored at -70 degrees C. Prior to their use, the stock solutions were diluted in fresh medium and the final DMSO concentration in the assay was 0.25% (v/v). All drugs and investigational agents were tested over a range starting from a high concentration at or near the clinical Cmax and decreasing in half-log increments. If the clinical Cmax for an agent had not been determined, the highest concentration tested was 10 microM.
Cell Lines. The patient-derived cancer cell (PDC) lines: 156681-154-R-J1-PDC, 283228-195-R-J1-PDC, 287954-098-R-J1-PDC, 292921-168-R-J2-PDC, 349418-098-R-PDC, 425362-245-T-J1-PDC, 556581-035-R-J1-PDC, and BL0293-F563-PDC were received from the NCI Patient-Derived Models Repository (PDMR, https://pdmr.cancer.gov). The established cell lines HS-SY-2 (RRID:CVCL_8719), MPNST, and SYO-1 (RRID:CVCL_7146) were obtained from the Sloan Kettering Institute. The alveolar soft parts sarcoma cell line ASPS-1 (RRID:CVCL_S738) was established at the NCI and grown from internal seed stocks. The following established cell lines were purchased from the American Type Culture Collection (ATCC, Manassas, VA): G-401 (ATCC, cat. CRL-1441, RRID:CVCL_0270), SW982 (ATCC, cat. HTB-93, RRID:CVCL_1734), VA-ES-BJ (ATCC, cat. CRL-2138, RRID:CVCL_1785), NCI-H719 (ATCC, cat. CRL-5837, RRID:CVCL_1582), NCI-H196 (ATCC, cat. CRL-5823, RRID:CVCL_1509), NCI-H841 (ATCC, cat. CRL-5845, RRID:CVCL_1595), NCI-H1618 (ATCC, cat. CRL-5879, RRID:CVCL_1480), NCI-H1876 (ATCC, cat. CRL-5902, RRID:CVCL_1503), DMS 114 (ATCC, cat. CRL-2066; RRID:CVCL_1174), NCI-H211 (ATCC, cat. CRL-5824; RRID:CVCL_1529), and SW 1271 (ATCC, cat. CRL-2177, RRID:CVCL_1716). The small cell lung cancer cell line COR-L88 was purchased from Sigma-Aldrich (cat. 92031917-1VL, RRID:CVCL_1141). The non-small cell lung cancer cell lines NCI-H226 (RRID:CVCL_1544) and NCI-H322M (RRID:CVCL_1557) were established at the NCI and grown from internal seed stocks. Pooled donor human umbilical vein endothelial cells (HUVEC, Lonza, cat. CC-2519) and human mesenchymal stem cells (hMSC, Lonza, cat. PT-2501) were purchased from Lonza (Walkersville, MD).
Cell Culture. All cells were maintained in an incubator at 37 degrees C and 5% CO2 with 95% humidity. […]

[1] = second compound 0.003 µM, first compound 0.00949 µM
[2] = second compound 0.003 µM, first compound 0.03 µM
[3] = second compound 0.003 µM, first compound 0.0949 µM
[4] = second compound 0.003 µM, first compound 0.3 µM
[5] = second compound 0.003 µM, first compound 0.949 µM
[6] = second compound 0.003 µM, first compound 3 µM
[7] = second compound 0.00949 µM, first compound 0.00949 µM
[8] = second compound 0.00949 µM, first compound 0.03 µM
[9] = second compound 0.00949 µM, first compound 0.0949 µM
[10] = second compound 0.00949 µM, first compound 0.3 µM
[11] = second compound 0.00949 µM, first compound 0.949 µM
[12] = second compound 0.00949 µM, first compound 3 µM
[13] = second compound 0.03 µM, first compound 0.00949 µM
[14] = second compound 0.03 µM, first compound 0.03 µM
[15] = second compound 0.03 µM, first compound 0.0949 µM
[16] = second compound 0.03 µM, first compound 0.3 µM
[17] = second compound 0.03 µM, first compound 0.949 µM
[18] = second compound 0.03 µM, first compound 3 µM
[19] = second compound 0.0949 µM, first compound 0.00949 µM
[20] = second compound 0.0949 µM, first compound 0.03 µM
[21] = second compound 0.0949 µM, first compound 0.0949 µM
[22] = second compound 0.0949 µM, first compound 0.3 µM
[23] = second compound 0.0949 µM, first compound 0.949 µM
[24] = second compound 0.0949 µM, first compound 3 µM
[25] = second compound 0.3 µM, first compound 0.00949 µM
[26] = second compound 0.3 µM, first compound 0.03 µM
[27] = second compound 0.3 µM, first compound 0.0949 µM
[28] = second compound 0.3 µM, first compound 0.3 µM
[29] = second compound 0.3 µM, first compound 0.949 µM
[30] = second compound 0.3 µM, first compound 3 µM

Work on `CNCc1ccc(-c2cc(-c3nc(-c4ccc(S(=O)(=O)C(C)C)cc4)cnc3N)on2)cc1` + CC[C@@]1(O)C(=O)OCc2c1cc1n(c2=O)Cc2cc3c(CN(C)C)c(O)ccc3nc2-1 yielded an IC50 (second compound 0.003 µM) of 24.5 nM, an IC50 (second compound 0.00949 µM) of under 9.49 nM and an IC50 (second compound 0.03 µM) of under 9.49 nM. For the same compound, the IC50 (second compound 0.0949 µM) was under 9.49 nM, the IC50 (second compound 0.3 µM) was under 9.49 nM and the viability, T/C [1] was 85.4%. The viability, T/C [2] was 42.5%, the viability, T/C [3] was 3.75% and the viability, T/C [4] was 2.18%. For the same compound, the viability, T/C [5] was 0.36%, the viability, T/C [6] was 0.11% and the viability, T/C [7] was 4.64%. The viability, T/C [8] was 3.26%, the viability, T/C [9] was 2.57% and the viability, T/C [10] was 1.53%. For the same compound, the viability, T/C [11] was 0.14%, the viability, T/C [12] was 0.09% and the viability, T/C [13] was 1.95%. For the same compound, the viability, T/C [14] was 2.01%, the viability, T/C [15] was 2.63% and the viability, T/C [16] was 2.32%. The viability, T/C [17] was 0.17%, the viability, T/C [18] was 0.1% and the viability, T/C [19] was 1.79%. It also gave a viability, T/C [20] of 1.82%, a viability, T/C [21] of 2.21% and a viability, T/C [22] of 1.43%. The viability, T/C [23] was 0.17%, the viability, T/C [24] was 0.11% and the viability, T/C [25] was 1.93%. The viability, T/C [26] was 1.65%, the viability, T/C [27] was 1.95% and the viability, T/C [28] was 1.63%. The viability, T/C [29] was 0.24% and the viability, T/C [30] was 0.17%.

`Cc1sc2c(c1C)C(c1ccc(Cl)cc1)=NC(CC(=O)Nc1ccc(O)cc1)c1nnc(C)n1-2` (stereo not given) + CC[C@@]1(O)C(=O)OCc2c1cc1n(c2=O)Cc2cc3c(CN(C)C)c(O)ccc3nc2-1 was tested, and the IC50 (second compound 0.003 µM) was 43.4 nM, the IC50 (second compound 0.00949 µM) was under 9.49 nM and the IC50 (second compound 0.03 µM) was under 9.49 nM. For the same compound, the IC50 (second compound 0.0949 µM) was under 9.49 nM, the IC50 (second compound 0.3 µM) was under 9.49 nM and the viability, T/C [1] was 84.9%. It also gave a viability, T/C [2] of 70.3%, a viability, T/C [3] of 7.08% and a viability, T/C [4] of 0.99%. It also gave a viability, T/C [5] of 0.77%, a viability, T/C [6] of 0.63% and a viability, T/C [7] of 6.31%. For the same compound, the viability, T/C [8] was 3.24%, the viability, T/C [9] was 1.18% and the viability, T/C [10] was 1.31%. The viability, T/C [11] was 0.7%, the viability, T/C [12] was 0.6% and the viability, T/C [13] was 1.74%. It also gave a viability, T/C [14] of 1.47%, a viability, T/C [15] of 1.35% and a viability, T/C [16] of 7.03%. For the same compound, the viability, T/C [17] was 0.62%, the viability, T/C [18] was 0.49% and the viability, T/C [19] was 1.62%. The viability, T/C [20] was 1.4%, the viability, T/C [21] was 0.87% and the viability, T/C [22] was 1.04%. The viability, T/C [23] was 0.66%, the viability, T/C [24] was 0.74% and the viability, T/C [25] was 1.64%. For the same compound, the viability, T/C [26] was 1.48%, the viability, T/C [27] was 1.05% and the viability, T/C [28] was 0.75%. It also gave a viability, T/C [29] of 0.47% and a viability, T/C [30] of 0.55%.
